Consider one compound from paper PMC7824442, “In Escherichia coli Ammonia Inhibits Cytochrome bo3 But Activates Cytochrome bd-I” (Antioxidants, 2020).

One assay concerns the target T1, cytochrome bd-I (Escherichia coli, UniProt P0ABJ9).
T1 construct: gene cydA; isolated cytochrome bd-I; with other subunits of the four-subunit cytochrome bd-I complex
Description: UV-visible absorption titration of the isolated oxidized enzyme at pH […] (Soret region, […] nm); activation of O2 reductase activity also shown. The assay is classed as binding.

The target in the next assay is T2, cytochrome bo3 (Escherichia coli, UniProt P0ABI8).
T2 construct: gene cyoB; isolated four-subunit His-tagged cytochrome bo3; with other subunits of the four-subunit cytochrome bo3 complex
T2 sequence (P0ABJ1 25-315): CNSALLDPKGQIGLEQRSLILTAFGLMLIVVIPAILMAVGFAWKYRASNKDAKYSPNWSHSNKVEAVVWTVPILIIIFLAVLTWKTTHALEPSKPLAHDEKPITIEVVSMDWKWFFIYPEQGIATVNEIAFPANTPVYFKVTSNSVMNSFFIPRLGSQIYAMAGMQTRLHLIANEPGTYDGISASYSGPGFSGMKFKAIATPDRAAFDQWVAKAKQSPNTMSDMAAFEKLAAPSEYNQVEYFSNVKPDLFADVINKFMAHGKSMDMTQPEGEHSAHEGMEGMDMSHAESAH
T2 sequence (P0ABJ6 whole entry, further chain): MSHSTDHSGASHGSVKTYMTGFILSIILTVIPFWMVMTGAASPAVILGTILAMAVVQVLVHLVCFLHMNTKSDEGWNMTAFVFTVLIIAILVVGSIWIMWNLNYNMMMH
T2 sequence (P0ABI8 whole entry): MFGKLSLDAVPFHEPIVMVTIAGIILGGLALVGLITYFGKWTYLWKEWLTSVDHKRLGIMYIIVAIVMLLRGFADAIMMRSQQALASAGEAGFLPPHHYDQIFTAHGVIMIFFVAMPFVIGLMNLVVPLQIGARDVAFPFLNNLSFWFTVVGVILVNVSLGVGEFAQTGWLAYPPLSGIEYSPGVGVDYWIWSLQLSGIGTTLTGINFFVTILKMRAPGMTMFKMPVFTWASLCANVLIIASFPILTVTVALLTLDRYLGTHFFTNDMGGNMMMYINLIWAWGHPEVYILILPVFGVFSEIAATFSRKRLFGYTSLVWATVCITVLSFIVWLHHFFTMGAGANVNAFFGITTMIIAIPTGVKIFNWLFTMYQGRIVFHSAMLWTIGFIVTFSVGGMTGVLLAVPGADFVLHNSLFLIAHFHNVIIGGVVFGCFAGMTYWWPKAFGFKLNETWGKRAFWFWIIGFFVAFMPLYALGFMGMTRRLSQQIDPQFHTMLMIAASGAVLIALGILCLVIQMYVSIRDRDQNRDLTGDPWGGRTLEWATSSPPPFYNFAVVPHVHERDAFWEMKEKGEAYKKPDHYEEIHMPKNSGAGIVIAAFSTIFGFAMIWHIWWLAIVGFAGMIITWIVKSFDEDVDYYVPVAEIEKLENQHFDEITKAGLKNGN
T2 sequence (P0ABJ3 whole entry, further chain): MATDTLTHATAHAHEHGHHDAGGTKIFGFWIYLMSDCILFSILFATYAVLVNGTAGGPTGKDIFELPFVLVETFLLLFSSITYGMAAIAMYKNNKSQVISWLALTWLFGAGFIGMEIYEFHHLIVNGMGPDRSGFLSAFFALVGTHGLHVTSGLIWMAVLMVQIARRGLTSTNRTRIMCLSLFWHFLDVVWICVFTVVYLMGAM
Description: UV-visible absorption titration of the isolated oxidized enzyme at pH […] (Soret region, […] nm); inhibition of O2 reductase activity also shown. The class given is binding.

T1 sequence (P0ABK2 whole entry): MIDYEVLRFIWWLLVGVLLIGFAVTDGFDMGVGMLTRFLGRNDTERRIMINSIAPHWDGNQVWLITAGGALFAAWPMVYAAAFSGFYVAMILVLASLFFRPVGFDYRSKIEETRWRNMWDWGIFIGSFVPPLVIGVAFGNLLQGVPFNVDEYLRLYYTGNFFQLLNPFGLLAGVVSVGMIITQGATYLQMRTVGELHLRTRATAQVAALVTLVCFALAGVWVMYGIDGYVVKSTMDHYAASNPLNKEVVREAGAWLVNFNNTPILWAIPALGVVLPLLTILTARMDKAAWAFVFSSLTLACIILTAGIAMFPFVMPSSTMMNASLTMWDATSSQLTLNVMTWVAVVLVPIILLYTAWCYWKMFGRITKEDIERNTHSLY
T1 sequence (P0ABJ9 whole entry): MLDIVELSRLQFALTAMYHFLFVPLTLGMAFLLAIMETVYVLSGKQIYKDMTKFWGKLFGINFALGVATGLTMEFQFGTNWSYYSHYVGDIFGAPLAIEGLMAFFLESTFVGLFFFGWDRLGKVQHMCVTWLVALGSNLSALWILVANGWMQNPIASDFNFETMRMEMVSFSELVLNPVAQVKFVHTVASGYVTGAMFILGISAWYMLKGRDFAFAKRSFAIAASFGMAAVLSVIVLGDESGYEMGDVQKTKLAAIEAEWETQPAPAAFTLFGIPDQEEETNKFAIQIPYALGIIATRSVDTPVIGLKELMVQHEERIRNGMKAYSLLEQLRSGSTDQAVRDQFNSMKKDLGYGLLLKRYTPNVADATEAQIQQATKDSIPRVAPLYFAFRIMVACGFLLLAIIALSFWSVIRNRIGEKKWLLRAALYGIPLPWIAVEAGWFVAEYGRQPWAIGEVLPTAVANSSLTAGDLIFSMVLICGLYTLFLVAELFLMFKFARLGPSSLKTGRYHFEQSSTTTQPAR

A word on the Kd: it is a measure of binding affinity in units of concentration. High values mean weaker binding, low ones tighter binding. As for `N` [ammonia], the Kd was 7.2 ± 1.4 mM at cytochrome bd-I and 4.9 ± 0.5 mM on cytochrome bo3.
